This note sets out measurements from EP4644383A1 (Jiangsu Yahong Meditech Co., Ltd., priority 2022, dated 2024).

The structures appear in SMILES notation.

Common to all, as to type: biochemical
One experiment concerns the target T1, FGFR1 (Homo sapiens, UniProt P11362).
T1 construct: cytoplasmic domain [398-822 (terminal) amino acids]; purchased Carna 08-133
Briefly: FGFR1 kinase activity inhibition assay (LanthaScreen TR-FRET). Conditions: FGFR1 kinase, TR-FRET; read-out: IC50 (nM) FGFR1. The method, boiled down:
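Emission ratio 520 nm/495 nm by TR-FRET after stopping reaction with 10 mM EDTA and 60 min incubation at 22°C. Inhibition normalized between no-enzyme (min) and DMSO (max) controls, then fitted to a four-parameter curve (Top, Bottom, HillSlope).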

The target in another experiment is T2, FGFR2 (Homo sapiens, UniProt P21802).
T2 construct: FGFR2's cytoplasmic domain [399-821 (terminal) amino acids]; purchased Carna 08-134
Briefly: FGFR2 kinase activity inhibition assay (LanthaScreen TR-FRET). Conditions: FGFR2 kinase, TR-FRET; read-out: IC50 (nM) FGFR2. The method, boiled down:
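GST-fused FGFR2 cytoplasmic domain (aa 399-821) was run as in the FGFR1 protocol: preincubated 10 min at 23 °C with compound (3-fold series from 1 µM) in 50 mM HEPES pH 7.5, 10 mM MgCl2, 4 mM DTT, 1% DMSO. A 2× mix of 28 nM fluorescein-poly GT/28 µM ATP then reacted 30 min. Tb-PY20/EDTA quench preceded the TR-FRET 520/495 read.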

The next experiment addresses T3, FGFR3 (Homo sapiens, UniProt P22607).
T3 construct: FGFR3's cytoplasmic domain [436-806 (terminal) amino acids]; purchased Carna 08-135
Briefly: FGFR3 kinase activity inhibition assay (LanthaScreen TR-FRET). The note with it: for IC50: FGFR3 kinase, TR-FRET, read-out: IC50 (nM) FGFR3; for Selectivity (X) FGFR1/FGFR3: ratio of IC50 FGFR1/FGFR3, selectivity towards FGFR3; for Selectivity (X) FGFR2/FGFR3: ratio of IC50 FGFR2/FGFR3, selectivity towards FGFR3; for Selectivity (X) FGFR4/FGFR3: ratio of IC50 FGFR4/FGFR3, selectivity towards FGFR3. The method, boiled down:
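Read-out is TR-FRET, with the 520 nm/495 nm emission ratio normalised to DMSO (max) and enzyme-free (min) controls. Enzyme was the FGFR3 cytoplasmic domain, residues 436-806. EDTA (10 mM) stopped the reaction, followed by 60 min at 22 °C before reading.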

A further experiment deals with T4, FGFR4 (Homo sapiens, UniProt P22455).
T4 construct: FGFR4's cytoplasmic domain [460-802 (terminal) amino acids]; purchased Carna 08-136
Briefly: FGFR4 kinase activity inhibition assay (LanthaScreen TR-FRET). Conditions: FGFR4 kinase, TR-FRET; read-out: IC50 (nM) FGFR4. The method, boiled down: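 GST-tagged cytoplasmic domains (FGFR2 aa 399-821; FGFR4 aa 460-802) were preincubated 10 min at 23 °C with compound (top 1 µM, threefold dilutions). Then 28 nM fluorescein-poly GT and 28 µM ATP were added for 30 min at 23 °C in HEPES pH 7.5 buffer. Tb-PY20 TR-FRET 520/495 ratio gave % inhibition versus DMSO and no-enzyme controls.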

T1 sequence (P11362 398-822): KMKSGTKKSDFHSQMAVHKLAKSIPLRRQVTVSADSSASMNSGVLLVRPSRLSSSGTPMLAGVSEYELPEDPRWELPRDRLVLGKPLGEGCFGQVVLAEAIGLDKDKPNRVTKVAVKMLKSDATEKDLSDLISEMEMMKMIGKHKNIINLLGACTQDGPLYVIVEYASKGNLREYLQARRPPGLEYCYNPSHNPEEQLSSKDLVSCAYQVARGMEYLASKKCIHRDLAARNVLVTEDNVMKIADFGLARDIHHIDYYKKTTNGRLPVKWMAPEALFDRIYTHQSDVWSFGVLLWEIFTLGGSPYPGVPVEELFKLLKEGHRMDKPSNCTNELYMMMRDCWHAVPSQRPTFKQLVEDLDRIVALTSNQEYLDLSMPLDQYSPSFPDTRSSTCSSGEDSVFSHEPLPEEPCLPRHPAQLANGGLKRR
T4 sequence (P22455 460-802): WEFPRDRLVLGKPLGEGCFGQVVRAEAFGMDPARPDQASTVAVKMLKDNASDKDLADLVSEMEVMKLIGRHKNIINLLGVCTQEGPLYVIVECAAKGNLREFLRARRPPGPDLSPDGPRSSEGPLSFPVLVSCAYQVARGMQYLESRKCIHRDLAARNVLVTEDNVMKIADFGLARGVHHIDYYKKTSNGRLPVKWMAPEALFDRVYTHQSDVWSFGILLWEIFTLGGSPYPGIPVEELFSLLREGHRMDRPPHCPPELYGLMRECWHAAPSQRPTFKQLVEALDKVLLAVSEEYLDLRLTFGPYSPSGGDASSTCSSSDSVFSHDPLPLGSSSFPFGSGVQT
T2 sequence (P21802 399-821): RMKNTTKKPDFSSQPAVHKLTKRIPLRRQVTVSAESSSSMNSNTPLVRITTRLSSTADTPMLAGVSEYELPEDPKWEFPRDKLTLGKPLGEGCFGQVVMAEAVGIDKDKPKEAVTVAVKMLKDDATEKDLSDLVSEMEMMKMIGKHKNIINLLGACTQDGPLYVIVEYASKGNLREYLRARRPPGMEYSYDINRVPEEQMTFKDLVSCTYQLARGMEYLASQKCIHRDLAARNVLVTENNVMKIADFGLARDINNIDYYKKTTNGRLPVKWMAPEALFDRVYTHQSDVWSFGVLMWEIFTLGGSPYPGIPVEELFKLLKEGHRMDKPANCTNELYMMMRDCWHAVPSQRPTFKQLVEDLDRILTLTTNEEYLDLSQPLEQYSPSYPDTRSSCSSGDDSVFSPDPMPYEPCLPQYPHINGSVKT
T3 sequence (P22607 436-806): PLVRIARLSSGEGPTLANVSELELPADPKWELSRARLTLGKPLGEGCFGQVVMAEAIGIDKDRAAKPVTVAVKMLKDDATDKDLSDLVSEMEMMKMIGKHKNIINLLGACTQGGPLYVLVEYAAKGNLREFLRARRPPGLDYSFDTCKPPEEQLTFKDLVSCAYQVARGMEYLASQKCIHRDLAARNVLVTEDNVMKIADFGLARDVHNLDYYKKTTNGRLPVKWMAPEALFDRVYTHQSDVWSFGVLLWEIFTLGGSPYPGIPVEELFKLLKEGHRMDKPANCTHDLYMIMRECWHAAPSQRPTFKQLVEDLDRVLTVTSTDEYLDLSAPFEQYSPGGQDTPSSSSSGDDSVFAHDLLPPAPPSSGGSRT

With `CC(Oc1ccc2[nH]nc(-c3cnn(C)c3)c2c1)c1nccc2nccnc12` (stereo not shown) [Example 157, 5-(1-((3-(1-methyl-1H-pyrazol-4-yl)-1H-indazol-5-yl)oxy)ethyl)py ridino[3,4-b]pyrazine], the IC50 on FGFR1 is 10 to 100 nM; on FGFR2, 1 to 10 nM; at FGFR3 it was 1 to 10 nM; at FGFR4, 10 to 100 nM. In addition, the “Selectivity (X) FGFR1/FGFR3” value at FGFR3 is “A (A represents 1 ≤ multiple X<20)”. For the same compound, at FGFR3, the “Selectivity (X) FGFR2/FGFR3” value is given as “A (A represents 1 ≤ multiple X<20)”. In addition, the “Selectivity (X) FGFR4/FGFR3” value on FGFR3 is reported as “A (A represents 1 ≤ multiple X<20)”.

For `CC(Oc1ccc2[nH]nc(-c3cnn(C4CN(C)C4)c3)c2c1)c1cccc2nccnc12` (stereo not shown) [Example 158, 5-(1-((3-(1-(1-methylazetidin-3-yl)-1H-pyrazol-4-yl)-1H-indazol-5-yl)oxy)ethyl)q uinoxaline], the IC50 at FGFR1 lay within 10 to 100 nM; at FGFR2 it was 1 to 10 nM; at FGFR3, 1 to 10 nM; at FGFR4, 10 to 100 nM. Further, the “Selectivity (X) FGFR1/FGFR3” value on FGFR3 was “B (B represents 20 ≤ multiple X<50)”. At FGFR3, the “Selectivity (X) FGFR2/FGFR3” value was “A (A represents 1 ≤ multiple X<20)”. Further, the “Selectivity (X) FGFR4/FGFR3” value on FGFR3 was “C (C represents 50 ≤ multiple X<100)”.

Regarding `Cc1c(F)cc2ncccc2c1C(C)Oc1ccc2[nH]nc(-c3cnn(C)c3)c2c1` (stereo not shown) [Example 161, 7-fluoro-6-methyl-5-(1-((3-(1-methyl-1H-pyrazol-4-yl)-1H-indazol-5-yl)oxy)ethyl)quinoline], the IC50 on FGFR1 was in the range of 10 to 100 nM; at FGFR2, 10 to 100 nM; at FGFR3, 1 to 10 nM; at FGFR4 it was 10 to 100 nM. Moreover, at FGFR3, the “Selectivity (X) FGFR1/FGFR3” value was “B (B represents 20 ≤ multiple X<50)”. The “Selectivity (X) FGFR2/FGFR3” value on FGFR3 was “A (A represents 1 ≤ multiple X<20)”. Moreover, the “Selectivity (X) FGFR4/FGFR3” value at FGFR3 is on record as “B (B represents 20 ≤ multiple X<50)”.

In the case of `CC(Oc1ccc2[nH]nc(-c3cnn(C4CC(N(C)C)C4)c3)c2c1)c1cccc2nccnc12` (stereo not shown) [Example 170, N,N-dimethyl-3-(4-(5-(1-(quinoxalin-5-yl)ethoxy)-1H-indazol-3-yl)-1H-pyrazol-1-yl)cyclobutan-1-amine], at FGFR1, the IC50 is 1 to 10 nM. For the same compound, on FGFR2, the IC50 is 1 to 10 nM. Further, on FGFR3, the IC50 was less than 1 nM, the “Selectivity (X) FGFR1/FGFR3” value is recorded as “A (A represents 1 ≤ multiple X<20)”, the “Selectivity (X) FGFR2/FGFR3” value is “A (A represents 1 ≤ multiple X<20)” and the “Selectivity (X) FGFR4/FGFR3” value is on record as “C (C represents 50 ≤ multiple X<100)”. Moreover, the IC50 at FGFR4 was in the range of 10 to 100 nM.

On to `Cc1cc(C(C)Oc2ccc3[nH]nc(-c4cnn(C)c4)c3c2)c2ccnn2c1` (stereo not shown) [Example 171, 3-(1-methyl-1H-pyrazol-4-yl)-5-(1-(6-methylpyrazolo [1,5-a]pyridin-4-yl)ethoxy)-1H-indazole], for which the 50% inhibitory concentration (IC50) at FGFR1 lay within 10 to 100 nM. Besides, on FGFR2, the IC50 lay within 1 to 10 nM. Also, on FGFR3, the IC50 is less than 1 nM, the “Selectivity (X) FGFR1/FGFR3” value is reported as “B (B represents 20 ≤ multiple X<50)”, the “Selectivity (X) FGFR2/FGFR3” value is recorded as “A (A represents 1 ≤ multiple X<20)” and the “Selectivity (X) FGFR4/FGFR3” value is “B (B represents 20 ≤ multiple X<50)”. Also, the IC50 at FGFR4 lay in the range of 10 to 100 nM.

Take `CC(Oc1ccc2[nH]nc(-c3cnn(CCCS(C)(=N)=O)c3)c2c1)c1cc(Cl)cc2nccnc12` (stereo not shown) [Example 173, (3-(4-(5-(1-(7-chloroquinoxalin-5-yl)ethoxy)-1H-indazol-3-yl)-1H-pyrazol-1-yl)propyl)(imino)(methyl)-sulfanone]: the IC50 is 1 to 10 nM at FGFR1, 1 to 10 nM at FGFR2, less than 1 nM on FGFR3 and 10 to 100 nM on FGFR4. Besides, the “Selectivity (X) FGFR1/FGFR3” value at FGFR3 is given as “A (A represents 1 ≤ multiple X<20)”. Further, the “Selectivity (X) FGFR2/FGFR3” value on FGFR3 was “A (A represents 1 ≤ multiple X<20)”. For the same compound, the “Selectivity (X) FGFR4/FGFR3” value on FGFR3 is given as “B (B represents 20 ≤ multiple X<50)”.

As to `CC(Oc1ccc2[nH]nc(-c3cnn(C)c3)c2c1)c1cc(Cl)cn2nccc12` (stereo not shown) [Example 174, 5-(1-(6-chloropyrazolo[1,5-a]pyridin-4-yl)ethoxy)-3-(1-methyl-1H-pyrazol-4-yl)-1H-indazole], the IC50 on FGFR1 was 10 to 100 nM. The half-maximal inhibitory concentration (IC50) on FGFR2 was 1 to 10 nM. In addition, at FGFR3, the IC50 was less than 1 nM, the “Selectivity (X) FGFR1/FGFR3” value is “B (B represents 20 ≤ multiple X<50)”, the “Selectivity (X) FGFR2/FGFR3” value was “B (B represents 20 ≤ multiple X<50)” and the “Selectivity (X) FGFR4/FGFR3” value is listed as “D (D represents 100 ≤ multiple X)”. The IC50 at FGFR4 fell in the range of 10 to 100 nM.

Consider `[2H]C([2H])([2H])c1ccc2ncccc2c1C(C)Oc1ccc2[nH]nc(-c3cnn(C)c3)c2c1` (stereo not shown) [Example 187, 6-(methyl-d3) - 5-(1-((3-(1-methyl-1H-pyrazol-4-yl)-1H-indazol-5-yl)oxy)ethyl)qu inoline], for which the IC50 lay within 10 to 100 nM at FGFR1, 10 to 100 nM on FGFR2, 1 to 10 nM at FGFR3 and 10 to 100 nM on FGFR4. In addition, on FGFR3, the “Selectivity (X) FGFR1/FGFR3” value is listed as “B (B represents 20 ≤ multiple X<50)”. Moreover, the “Selectivity (X) FGFR2/FGFR3” value at FGFR3 was “A (A represents 1 ≤ multiple X<20)”. For the same compound, at FGFR3, the “Selectivity (X) FGFR4/FGFR3” value is recorded as “B (B represents 20 ≤ multiple X<50)”.

For `CC(Oc1ccc2[nH]nc(-c3cnn(C4CN(C(=O)CO)C4)c3)c2c1)c1cc(Cl)cc2ncccc12` (stereo not shown) [Example 189, 1-(3-(4-(5-(1-(7-chloroquinolin-5-yl)ethoxy)-1H-indazol-3-yl)-1H-pyrazol-1-yl)azetidin-1-yl)-2-hydroxyethan-1-one], on FGFR1, the IC50 was more than 100 nM. The IC50 on FGFR2 lay in the range of 10 to 100 nM. On FGFR3, the IC50 was less than 1 nM, the “Selectivity (X) FGFR1/FGFR3” value is on record as “D (D represents 100 ≤ multiple X)”, the “Selectivity (X) FGFR2/FGFR3” value is on record as “B (B represents 20 ≤ multiple X<50)” and the “Selectivity (X) FGFR4/FGFR3” value is given as “C (C represents 50 ≤ multiple X<100)”. The IC50 at FGFR4 fell in the range of 10 to 100 nM.

Regarding `Cc1cn2nccc2c(C(C)Oc2ccc3[nH]nc(-c4cnn(C)c4)c3c2)n1` (stereo not shown) [Example 191, 6-methyl-4-(1-((3-(1-methyl-1H-pyrazol-4-yl)-1H-indazol-5-yl)oxy)ethyl)py razolo[1,5-a]pyrazine], the IC50 at FGFR1 is 10 to 100 nM; on FGFR2, 1 to 10 nM; at FGFR3, less than 1 nM; at FGFR4, 10 to 100 nM. For the same compound, the “Selectivity (X) FGFR1/FGFR3” value on FGFR3 is “C (C represents 50 ≤ multiple X<100)”. Also, the “Selectivity (X) FGFR2/FGFR3” value on FGFR3 is given as “A (A represents 1 ≤ multiple X<20)”. Moreover, the “Selectivity (X) FGFR4/FGFR3” value at FGFR3 was “C (C represents 50 ≤ multiple X<100)”.

For the compound `CC(Oc1ccc2[nH]nc(-c3cnn(C4CN(S(=O)(=O)N(C)C)C4)c3)c2c1)c1cccc2nccnc12` (stereo not shown) [Example 194, N,N-dimethyl-3-(4-(5-(1-(quinoxalin-5-yl)ethoxy)-1H-indazol-3-yl)-1H-pyrazol-1-yl)azetidine-1-sulfonamide], the IC50 at FGFR1 was 10 to 100 nM. On FGFR2, the IC50 lay within 1 to 10 nM. Further, at FGFR3, the half-inhibitory concentration (IC50) is less than 1 nM, the “Selectivity (X) FGFR1/FGFR3” value is “B (B represents 20 ≤ multiple X<50)”, the “Selectivity (X) FGFR2/FGFR3” value is given as “A (A represents 1 ≤ multiple X<20)” and the “Selectivity (X) FGFR4/FGFR3” value is “C (C represents 50 ≤ multiple X<100)”. In addition, on FGFR4, the IC50 fell in the range of 10 to 100 nM.

For `CC(Oc1ccc2[nH]nc(-c3cnn(C4CN(S(C)(=O)=O)C4)c3)c2c1)c1cccc2nccnc12` (stereo not shown) [Example 195], on FGFR1, the half-inhibitory concentration (IC50) fell in the range of 10 to 100 nM. The IC50 at FGFR2 was in the range of 1 to 10 nM. In addition, at FGFR3, the half-inhibitory concentration (IC50) was less than 1 nM, the “Selectivity (X) FGFR1/FGFR3” value was “B (B represents 20 ≤ multiple X<50)”, the “Selectivity (X) FGFR2/FGFR3” value was “A (A represents 1 ≤ multiple X<20)” and the “Selectivity (X) FGFR4/FGFR3” value is recorded as “B (B represents 20 ≤ multiple X<50)”. Besides, the IC50 on FGFR4 was in the range of 10 to 100 nM.

With `CC(Oc1ccc2[nH]nc(-c3cnn(C)c3)c2n1)c1c(C(F)F)ccc2ncccc12` (stereo not shown) [Example 203], the IC50 was 10 to 100 nM at FGFR1, 10 to 100 nM on FGFR2, less than 1 nM on FGFR3 and 10 to 100 nM at FGFR4. In addition, the “Selectivity (X) FGFR1/FGFR3” value at FGFR3 is on record as “B (B represents 20 ≤ multiple X<50)”. Moreover, on FGFR3, the “Selectivity (X) FGFR2/FGFR3” value is “B (B represents 20 ≤ multiple X<50)”. Also, the “Selectivity (X) FGFR4/FGFR3” value at FGFR3 is listed as “C (C represents 50 ≤ multiple X<100)”.
